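A five-concentration, 48-hour dose response in 96-well plates underlies each endpoint, interpolated linearly between surrounding concentrations. Abbreviation: GI50, concentration required for 50% inhibition of growth.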 Activity calls are given as the source filed them. Cut-off read from the data, not from the text of the source: active = GI50 up to about 1.1 µM and inactive = higher.
Tests used:
Assay in all cases: DTP human tumour cell line panel, 48 h
[1] = tested on: NCI-H226
[2] = tested on: HL-60
[3] = tested on: OVCAR-3
[4] = tested on: OVCAR-8
[5] = tested on: MOLT-4
[6] = tested on: KM12
[7] = tested on: IGROV-1
[8] = tested on: HT-29
[9] = tested on: OVCAR-4
[10] = tested on: RPMI-8226
[11] = tested on: MCF7
[12] = tested on: SF-539
[13] = tested on: EKVX
[14] = tested on: U-251
[15] = tested on: COLO 205
[16] = tested on: Malme-3M
[17] = tested on: SW-620
[18] = tested on: SNB-75
[19] = tested on: TK-10

Measured: GI50

N[C@@H](CSCSC[C@H](N)C(=O)O)C(=O)O
inactive: [1] > 225 µM | [2] 185 µM | [3] > 225 µM | [4] 35.6 µM | [5] 195 µM | [6] 126 µM | [7] > 225 µM | [8] > 225 µM | [9] > 225 µM | [10] > 225 µM | [11] > 225 µM | [12] > 225 µM | [13] > 225 µM | [14] > 225 µM | [15] > 225 µM | [16] > 225 µM | [17] > 225 µM | [18] > 225 µM

CCc1ccc(Nc2cc(=O)[nH]c(=S)n2C)cc1
inactive: [1] > 100 µM | [19] > 100 µM | [2] > 100 µM | [3] > 100 µM | [4] > 100 µM | [5] > 100 µM | [6] > 100 µM | [7] > 100 µM | [8] > 100 µM | [9] > 100 µM | [10] > 100 µM | [12] > 100 µM | [13] 88.3 µM | [14] > 100 µM | [15] > 100 µM | [16] > 100 µM | [17] > 100 µM | [18] 46.3 µM

COc1ccc(/C(Cl)=C(\C=O)c2ccc(OC)cc2)cc1
inactive: [1] > 100 µM | [19] > 100 µM | [2] 15.9 µM | [3] 64.9 µM | [4] 59.4 µM | [5] 7 µM | [7] > 100 µM | [8] > 100 µM | [9] 48.1 µM | [10] 37.9 µM | [12] > 100 µM | [13] > 100 µM | [14] 70.8 µM | [16] > 100 µM | [17] > 100 µM | [18] > 100 µM

O=CCCn1[nH]c(=O)ccc1=O
inactive: [1] > 100 µM | [19] > 100 µM | [2] > 100 µM | [3] > 100 µM | [4] > 100 µM | [5] > 100 µM | [7] > 100 µM | [8] > 100 µM | [9] > 100 µM | [10] > 100 µM | [12] > 100 µM | [13] > 100 µM | [14] > 100 µM | [16] > 100 µM | [17] > 100 µM | [18] > 100 µM

CCOCCOc1ccc(OCCOCC)cc1
inactive: [1] 31.9 µM | [2] 3.4 µM | [3] 30.1 µM | [4] 16.6 µM | [5] 7.71 µM | [6] 31.5 µM | [7] 20 µM | [8] 16.9 µM | [9] 6.04 µM | [10] 3.51 µM | [11] 14 µM | [12] > 10 µM | [14] 34 µM | [15] 15.9 µM | [16] 13.4 µM | [17] 19.2 µM | [18] 18.8 µM

O=[N+]([O-])c1ccc(C2=Nc3ccccc3SC(c3ccccc3)C2)cc1 (centres undefined)
inactive: [1] 21.7 µM | [19] 38.1 µM | [2] 16.5 µM | [4] 20.8 µM | [5] 15.1 µM | [6] 17.1 µM | [7] 16 µM | [9] 14.3 µM | [10] 14.8 µM | [12] 21.4 µM | [13] 16.6 µM | [14] 13.1 µM | [15] 17.5 µM | [17] 14.5 µM | [18] 18.1 µM

CNc1ccccc1-c1nc2ccccc2c(=O)o1
inactive: [1] > 100 µM | [19] > 100 µM | [2] > 100 µM | [4] > 100 µM | [5] > 100 µM | [6] > 100 µM | [7] 74.1 µM | [9] > 100 µM | [10] > 100 µM | [12] 35 µM | [13] > 100 µM | [14] > 100 µM | [15] > 100 µM | [16] > 100 µM | [17] > 100 µM | [18] 27.4 µM

COC(=O)c1ccc(/C=C2\N=C(C)OC2=O)cc1
inactive: [1] > 100 µM | [19] > 100 µM | [2] > 100 µM | [3] > 100 µM | [4] > 100 µM | [5] > 100 µM | [6] > 100 µM | [7] > 100 µM | [8] > 100 µM | [9] > 100 µM | [10] > 100 µM | [12] > 100 µM | [13] > 100 µM | [14] > 100 µM | [15] > 100 µM | [17] > 100 µM | [18] > 100 µM

CN(C)C(=O)C1CCC(=C2C(=O)OC(C)(C)OC2=O)N1C (centres undefined)
inactive: [1] > 100 µM | [19] > 100 µM | [3] > 100 µM | [4] > 100 µM | [5] > 100 µM | [6] > 100 µM | [7] > 100 µM | [8] > 100 µM | [9] > 100 µM | [12] > 100 µM | [13] > 100 µM | [14] > 100 µM | [15] > 100 µM | [16] > 100 µM | [17] > 100 µM | [18] > 100 µM

Source: ChEMBL document CHEMBL1201862, “PubChem BioAssay data set” (2004)
